Data reported in patent US8652467B2, “Dek protein compositions and methods of using the same” (The Regents of the University of Michigan, priority 2005, dated 2014).
Entries after “also recorded” stand apart in the source; their conditions may differ. Peptide text beside a SMILES is read from it. * marks the point of attachment. Cbz = O=C(OCc1ccccc1)*; CH2F = FC*

Key:
[1] = tested on: monocyte-derived macrophages (MDM); assay: DEK secretion by serum-differentiated MDM, Western blot of supernatants; assay type: cell-based, human; settings: for amount of DEK found in culture supernatants: treatment of MDM with Golgi inhibitors
Method: MDM were prepared as described (See, e.g., Lane et al., J Immunol 163, 3653-61. (1999)). Briefly, heparinized venous blood was collected from healthy volunteers, and peripheral blood mononuclear cells (PBMC) were separated by Ficoll-Hypaque (Amersham Pharmacia Biotech AB, Uppsala, Sweden) density gradient centrifugation. MDM were purified by adherence to plastic for 2 h at 37° C. at a concentration of 5×10^5/ml. Adherent cells were consistently >90% monocytes (See, e.g., Lane et al., J Immunol 163, 3653-61. (1999)). […]
MDMs were maintained for 12 h in serum-free conditioned media with added dexamethasone, (0.5 μM or 1 μM) (Sigma St. Louis, Mo.), cyclosporin A (CsA, 1 μg/ml) (Sigma St. Louis, Mo.), carbonyl cyanide chlorophenyl hydrazone (CCCP) (10 μM) (Sigma St. Louis, Mo.), IL-8 (10 ng/ml) (R&D Systems, Minneapolis, Minn.) or TBB (See, e.g., Sarno et al., Pharmacol Ther 93, 159-68 (2002)) for 3 hours. Following 3 washes with PBS, serum-free media was added for 3 to 12 h before harvest. The viability of the cells incubated in serum-free medium with or without added drugs was >95% at 48 h as measured by MTT-based colorimetric assay (Boehringer Mannheim, Indianapolis, Ind.) and by LDH release as previously described (See, e.g., Punturieri et al., J Exp Med 192, 789-99. (2000)). Supernatants were collected and centrifuged for 20 min at 200×g to remove cell debris, then concentrated by a centrifugal filter device (Millipore) in the presence of a protease inhibitor cocktail (Boehringer Mannheim, Indianapolis, Ind.). Equal amounts of protein (20 μg) were loaded under reducing conditions and proteins were separated by 10% SDS-PAGE. The proteins were subsequently transferred to nitrocellulose and probed with mouse monoclonal anti-DEK or rabbit or goat polyclonal anti-DEK antibodies. The bound primary antibody was then detected with horseradish peroxidase-conjugated goat anti-mouse or anti-rabbit secondary antibody using the Super Signal West Pico system (Pierce Chemical Co, Rockford, Ill.).

[2] = tested on: purified neutrophils (PMN); assay: In vitro migration assay with purified neutrophils; assay type: cell-based, human; settings: SB225002 3 μM, 1 h
Method: Purified neutrophils (PMN) were treated with IL-8 (50 nM), the CXCR2 small molecule inhibitor SB225002 (3 μM), DEK (79 nM), IL-8 plus SB225002, or DEK plus SB225002 for 5 min at room temperature before and then during the migration assay. After 1 h, the number of fluorescently labeled migrating cells in the lower chamber was determined at 485 nM/535 nm wavelengths by Tecan GENios (Phenix, Austria). […] The results are expressed as the average fold increase in the number of cells migrating toward DEK compared to control wells containing medium only. White blood cells were isolated from venous blood from healthy donors as described above, and were depleted of monocytes by adherence to plastic for 2 h as described in the Cell Preparation section. […] The cells were washed and resuspended at 1×10^6 cells/ml in serum-free RPMI medium, and 1×10^5 labeled cells in 100 μl were added to the upper chamber of a 24-well Transwell chemotaxis insert with pore size of 3 μm or 5 μm (Corning, N.Y.). The lower chambers contained serum-free RPMI medium alone, recombinant DEK made in baculovirus, or a deletion mutant of the β form of human GLI-2 (See, e.g., Smith et al., J Virol 75, 2301-13 (2001)) produced in baculovirus as the control protein. After 30 min to 1 h, the number of fluorescently labeled migrating cells in the lower chamber was determined at […] wavelength using a Tecan GENios plate-reader (Phenix, Austria). The results were expressed as the average fold increase of the number of cells migrating toward lower chambers containing DEK divided by the number of cells migrating toward the control wells (medium alone). Forty ml of venous blood was collected from healthy volunteers into a 50 ml sterile syringe containing a mixture of 7 ml 0.25 M Citrate (0.17 M NA Citrate and 0.083 M Citric Acid) and 6% Dextran in PBS buffer. The blood was incubated for 30 min at room temperature and the upper phase was collected and further separated by Ficoll as described above. The neutrophil fraction was collected and washed with HBSS buffer and then pelleted again. […]

[3] = target: T1, CXCR2 (Homo sapiens, UniProt P25025); settings: at low concentrations; cited from earlier work
T1 sequence (P25025 1-360): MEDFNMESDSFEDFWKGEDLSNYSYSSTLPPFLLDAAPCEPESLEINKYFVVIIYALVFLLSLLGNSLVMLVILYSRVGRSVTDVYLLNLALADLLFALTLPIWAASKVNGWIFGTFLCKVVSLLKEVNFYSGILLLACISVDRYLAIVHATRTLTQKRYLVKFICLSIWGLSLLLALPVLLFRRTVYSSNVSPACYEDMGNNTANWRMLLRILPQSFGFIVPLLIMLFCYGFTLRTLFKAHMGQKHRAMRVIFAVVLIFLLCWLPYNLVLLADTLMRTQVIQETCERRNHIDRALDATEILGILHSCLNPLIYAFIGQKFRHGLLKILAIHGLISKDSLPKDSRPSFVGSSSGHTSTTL

[4] = tested on: Jurkat cells; assay: FAS-L induced apoptosis assay, DEK release into cytoplasm; assay type: cell-based; settings: Fas Ligand-mediated apoptosis, 3% FAS-L, 180 min
Method: Jurkat cells were washed with serum-free RPMI medium and incubated with 3% FAS-L without or with the broad-spectrum caspase inhibitor zVAD for 180 min. Cells were fractionated and the cytoplasm was separated by SDS-PAGE followed by immunoblotting with DEK specific antibodies (mouse monoclonal, BD Bioscience). As a loading control the same blot was reprobed with specific antibodies to beta-actin.

[5] = tested on: Jurkat control and DEK-knockdown cells; assay: DEK knock-down and DNA damage assay (Annexin-V); assay type: cell-based; settings: increasing doses, 24 hours
Method: Jurkat and HeLa S3 cells were transduced with either an empty lentiviral vector, or a vector containing two DEK-specific shRNAs. Control and DEK-knockdown Jurkat cells were exposed to increasing doses of UVC radiation. Twenty-four hours after irradiation, the percentage of apoptotic cells was determined by staining with Annexin-V and analysis by flow cytometry. HeLa S3 control and DEK-knockdown cells were similarly treated with increasing doses of UVC radiation. Cells were fixed, permeabilized, and stained with R-phycoerythrin labeled antibodies against the active form of caspase-3 twenty-four hours after irradiation. The percentage of cells expressing the active form of caspase-3 was determined by flow cytometry. Jurkat control and DEK-knockdown transduced cells were treated with either etoposide or cisplatin at increasing doses and 24 hours later the percentage of apoptotic cells was determined by staining with Annexin-V.

[6] = MDM in 10% human serum, TNF-α 5-100 ng/ml, IFN-γ 10-100 ng/ml, MCP-1 10-100 ng/ml, LPS 500-1000 ng/ml alone and with IFN-γ

C[C@H]1CCC/C=C/[C@@H]2C[C@H](O)C[C@H]2[C@H](O)/C=C/C(=O)O1 [Brefeldin A]
amount of DEK found in culture supernatants [1]: does not alter

O=C(Nc1ccc([N+](=O)[O-])cc1O)Nc1ccccc1Br [SB225002]
neutrophil migration toward DEK ([2]; DEK 79 nM): significantly blocked; also recorded: virtually complete inhibition | neutrophil migration toward IL-8 ([2]; IL-8 50 nM): significantly blocked; also recorded: virtually complete inhibition | receptor selectivity [3]: selective for CXCR2

Brc1c(Br)c(Br)c2[nH]nnc2c1Br [TBB, 4,5,6,7-tetrabromobenzotriazole]
inhibition of DEK secretion ([1]; 12-day MDM treated with TBB): complete inhibition | amount of extracellular DEK from TBB-treated cells vs untreated cells ([1]; 12 hours after removal of TBB): significantly lower | DEK in supernatants collected during the first 3 hours of incubation in serum free media ([1]; three-hour treatment of 8-day MDM with TBB (50 μM)): absent

CC(NC(=O)C(NC(=O)OCc1ccccc1)C(C)C)C(=O)NC(CC(=O)O)C(=O)CF (stereo not drawn) [ZVAD] (Cbz-Val-Ala-Asp-CH2F; configuration not given here)
release of DEK into the cytoplasm [4]: blocks

N.N.[Cl][Pt][Cl] [cisplatinum]
sensitivity of DEK knock-down cells vs control cells (apoptosis) [5]: consistently more sensitive

COc1cc([C@@H]2c3cc4c(cc3[C@@H](O[C@@H]3O[C@@H]5CO[C@@H](C)O[C@H]5[C@H](O)[C@H]3O)[C@H]3COC(=O)[C@H]23)OCO4)cc(OC)c1O [etoposide]
sensitivity of DEK knock-down cells vs control cells (apoptosis) [5]: consistently more sensitive

CC[C@@]1([C@@H]2O[C@@H]([C@H]3O[C@@](O)(CO)[C@H](C)C[C@@H]3C)C[C@@H]2C)CC[C@H]([C@]2(C)CC[C@]3(C[C@H](O)[C@@H](C)[C@@H]([C@@H](C)[C@@H](OC)[C@H](C)C(=O)O)O3)O2)O1 [monensin]
amount of DEK found in culture supernatants [1]: does not alter

IL-8: recombinant IL-8, chemokine, neutrophil chemoattractant
stimulation of DEK secretion ([1]; IL-8 10 ng/ml, 12 h, day 12 MDM grown in 10% human serum): induces the secretion of DEK; also recorded: effective in stimulating vigorous secretion of DEK

MCP-1: monocyte chemoattractant protein-1
stimulation of DEK secretion [1, 6]: None of the inflammatory mediators listed above reproducibly stimulated DEK secretion

TNF-α
stimulation of DEK secretion [1, 6]: None of the inflammatory mediators listed above reproducibly stimulated DEK secretion

lipopolysaccharide [LPS]
stimulation of DEK secretion [1, 6]: None of the inflammatory mediators listed above reproducibly stimulated DEK secretion

tunicamycin
DEK secretion ([1]; treatment of MDM with tunicamycin (inhibits N-glycosylation)): not inhibited

B1: IFN-γ: inflammatory mediator (protein, UniProt P01579 24-161, looked up)
Interferon gamma: QDPYVKEAENLKKYFNAGHSDVADNGTLFLGILKNWKEESDRKIMQSQIVSFYFKLFKNFKDDQSIQKSVETIKEDMNVKFFNSNKKKRDDFEKLTNYSVTDLNVQRKAIHELIQVMAELSPAAKTGKRKRSQMLFRG
stimulation of DEK secretion [1, 6]: None of the inflammatory mediators listed above reproducibly stimulated DEK secretion
